By IC50 is commonly meant the concentration at which inhibition is half-maximal. Read a high IC50 as lower potency.

Consider 26 molecules from patent US10323022B2, “Pyrrolidinyl urea, pyrrolidinyl thiourea and pyrrolidinyl guanidine compounds as TrkA kinase inhibitors” (Array BioPharma Inc., priority 2011, dated 2019).

SMILES strings stand for the structures.

Sequence of TrkA (P04629 33-796): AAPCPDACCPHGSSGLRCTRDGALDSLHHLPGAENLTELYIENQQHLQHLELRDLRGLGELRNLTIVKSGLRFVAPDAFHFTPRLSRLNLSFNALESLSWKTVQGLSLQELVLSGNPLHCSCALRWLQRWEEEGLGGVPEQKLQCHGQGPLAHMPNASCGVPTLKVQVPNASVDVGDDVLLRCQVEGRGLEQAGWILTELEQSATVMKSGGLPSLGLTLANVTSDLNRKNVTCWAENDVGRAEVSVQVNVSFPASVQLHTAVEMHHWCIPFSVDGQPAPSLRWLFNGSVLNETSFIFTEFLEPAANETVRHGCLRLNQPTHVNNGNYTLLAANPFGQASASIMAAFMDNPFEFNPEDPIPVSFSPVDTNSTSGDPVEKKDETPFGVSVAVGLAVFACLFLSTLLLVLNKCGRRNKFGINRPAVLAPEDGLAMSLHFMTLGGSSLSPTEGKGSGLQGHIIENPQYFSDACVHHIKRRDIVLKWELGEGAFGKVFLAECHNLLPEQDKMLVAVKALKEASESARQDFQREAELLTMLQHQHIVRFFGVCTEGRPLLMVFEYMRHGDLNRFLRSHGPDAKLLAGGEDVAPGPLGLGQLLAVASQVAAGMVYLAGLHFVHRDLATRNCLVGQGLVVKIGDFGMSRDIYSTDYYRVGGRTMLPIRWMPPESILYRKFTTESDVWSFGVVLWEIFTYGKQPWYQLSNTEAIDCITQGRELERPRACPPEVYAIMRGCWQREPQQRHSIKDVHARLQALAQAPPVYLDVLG

This experiment has as its target TrkA (Homo sapiens (Human), UniProt P04629). The experiment can be described thus: TrkA Omnia Assay. It is filed as biochemical. The note with it: averaged IC50; 20 nM enzyme, 500 μM ATP, 10 μM peptide substrate. The method in brief: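 Continuous fluorescent kinase read-out (ex 360 nm, em 485 nm) over 70 min, with initial rates fitted to 4- or 5-parameter logistic curves for IC50. Final conditions: 500 μM ATP, 10 μM Omnia Tyr Peptide #4, 20 nM TrkA, MOPS pH 7.5 buffer with MgCl2 and Triton X-100; enzyme and compound preincubated 10 min at ambient temperature.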
For `COCCN1C[C@@H](NC(=O)Nc2c(C)c(-c3cnn(C)c3)nn2-c2ccccc2)[C@H](c2ccncc2F)C1` [Example 346, 1-(1′,4-dimethyl-1-phenyl-1H,1′H-[3,4′-bipyrazol]-5-yl)-3-((3S,4R)-4-(3-fluoropyridin-4-yl)-1-(2-methoxyethyl)pyrrolidin-3-yl)urea], the IC50 is < 100 nM. Turning to `COCCN1C[C@@H](NC(=O)Nc2c(C)c(-c3ncn(C)n3)nn2-c2ccccc2)[C@H](c2ccc(F)c(F)c2)C1` [Example 347, 1-((3S,4R)-4-(3,4-difluorophenyl)-1-(2-methoxyethyl)pyrrolidin-3-yl)-3-(4-methyl-3-(1-methyl-1H-1,2,4-triazol-3-yl)-1-phenyl-1H-pyrazol-5-yl)urea], the IC50 is < 100 nM.

Take `COCCN1C[C@@H](NC(=O)Nc2c(C)c(-c3cnn(CCOC)c3)nn2-c2ccccc2)[C@H](c2ccc(F)c(F)c2)C1` [Example 348, 1-((3S,4R)-4-(3,4-difluorophenyl)-1-(2-methoxyethyl)pyrrolidin-3-yl)-3-(1′-(2-methoxyethyl)-4-methyl-1-phenyl-1H,1′H-[3,4′-bipyrazol]-5-yl)urea]: the IC50 is < 100 nM.

In the case of `COCCN1C[C@@H](NC(=O)Nc2c(C)c(C#N)nn2-c2ccccc2)[C@H](c2ccc(F)c(F)c2)C1` [Example 349, 1-(3-cyano-4-methyl-1-phenyl-1H-pyrazol-5-yl)-3-((3S,4R)-4-(3,4-difluorophenyl)-1-(2-methoxyethyl)pyrrolidin-3-yl)urea], the IC50 was < 100 nM. Next, `COCCN1C[C@@H](NC(=O)Nc2c(C)c(-c3cnn(CCO)c3)nn2-c2ccccc2)[C@H](c2ccc(F)c(F)c2)C1` [Example 350, 1-((3S,4R)-4-(3,4-difluorophenyl)-1-(2-methoxyethyl)pyrrolidin-3-yl)-3-(1′-(2-hydroxyethyl)-4-methyl-1-phenyl-1H,1′H-[3,4′-bipyrazol]-5-yl)urea]: < 100 nM; `COCCN1C[C@@H](NC(=O)Nc2c(C)c(-c3cnn(C)n3)nn2-c2ccccc2)[C@H](c2ccc(F)c(F)c2)C1` [Example 351, 1-((3S,4R)-4-(3,4-difluorophenyl)-1-(2-methoxyethyl)pyrrolidin-3-yl)-3-(4-methyl-3-(2-methyl-2H-1,2,3-triazol-4-yl)-1-phenyl-1H-pyrazol-5-yl)urea]: < 100 nM. The figure for `COCCN1C[C@@H](NC(=O)Nc2c(C)c(Br)nn2-c2ccccc2)[C@H](c2ccc(F)c(F)c2)C1` [Example 352, 1-(3-bromo-4-methyl-1-phenyl-1H-pyrazol-5-yl)-3-((3S,4R)-4-(3,4-difluorophenyl)-1-(2-methoxyethyl)pyrrolidin-3-yl)urea] is < 100 nM; for `COCCN1C[C@@H](NC(=O)Nc2c3c(nn2-c2ccccc2)C(=O)N(C)C3)[C@H](c2ccc(F)c(F)c2)C1` [Example 353, 1-((3S,4R)-4-(3,4-difluorophenyl)-1-(2-methoxyethyl)pyrrolidin-3-yl)-3-(5-methyl-6-oxo-2-phenyl-2,4,5,6-tetrahydropyrrolo[3,4-c]pyrazol-3-yl)urea] it is 100 to 1000 nM; for `COCCN1C[C@@H](NC(=O)Nc2c(C)c(OCc3nnc(C)o3)nn2-c2ccccc2)[C@H](c2ccc(F)c(F)c2)C1` [Example 355, 1-((3S,4R)-4-(3,4-difluorophenyl)-1-(2-methoxyethyl)pyrrolidin-3-yl)-3-(4-methyl-3-((5-methyl-1,3,4-oxadiazol-2-yl)methoxy)-1-phenyl-1H-pyrazol-5-yl)urea] it is < 100 nM.

Take `CCOc1nn(-c2ccccc2)c(NC(=O)N[C@@H]2CN(CCOC)C[C@H]2c2ccc(F)c(F)c2)c1Cl` [Example 356, 1-(4-chloro-3-ethoxy-1-phenyl-1H-pyrazol-5-yl)-3-((3S,4R)-4-(3,4-difluorophenyl)-1-(2-methoxyethyl)pyrrolidin-3-yl)urea]: the IC50 was < 100 nM.

On to `CCOc1nn(-c2ccccc2)c(NC(=O)N[C@@H]2CN(CCOC)C[C@H]2c2ccc(F)c(F)c2)c1F` [Example 357, 1-((3S,4R)-4-(3,4-difluorophenyl)-1-(2-methoxyethyl)pyrrolidin-3-yl)-3-(3-ethoxy-4-fluoro-1-phenyl-1H-pyrazol-5-yl)urea], for which the IC50 is < 100 nM. The figure for `COCCN1C[C@@H](NC(=O)Nc2c(Br)c(OCC(C)(C)O)nn2-c2ccccc2)[C@H](c2ccc(F)c(F)c2)C1` [Example 358, 1-(4-bromo-3-(2-hydroxy-2-methylpropoxy)-1-phenyl-1H-pyrazol-5-yl)-3-((3S,4R)-4-(3,4-difluorophenyl)-1-(2-methoxyethyl)pyrrolidin-3-yl)urea] is < 100 nM. The figure for `COCCN1C[C@@H](NC(=O)Nc2c(Cl)c(OCC(C)(C)O)nn2-c2ccccc2)[C@H](c2ccc(F)c(F)c2)C1` [Example 359, 1-(4-chloro-3-(2-hydroxy-2-methylpropoxy)-1-phenyl-1H-pyrazol-5-yl)-3-((3S,4R)-4-(3,4-difluorophenyl)-1-(2-methoxyethyl)pyrrolidin-3-yl)urea] is < 100 nM; for `CC[C@H](O)COc1nn(-c2ccccc2)c(NC(=O)N[C@@H]2CN(CCOC)C[C@H]2c2ccc(F)c(F)c2)c1C` [Example 360, 1-((3S,4R)-4-(3,4-difluorophenyl)-1-(2-methoxyethyl)pyrrolidin-3-yl)-3-(3-((S)-2-hydroxybutoxy)-4-methyl-1-phenyl-1H-pyrazol-5-yl)urea] it is < 100 nM; for `CCOC(=O)COc1nn(-c2ccccc2)c(NC(=O)N[C@@H]2CN(CCOC)C[C@H]2c2ccc(F)c(F)c2)c1C` [Example 361, ethyl 2-((5-(3-((3S,4R)-4-(3,4-difluorophenyl)-1-(2-methoxyethyl)pyrrolidin-3-yl)ureido)-4-methyl-1-phenyl-1H-pyrazol-3-yl)oxy)acetate] it is < 100 nM.

Regarding `COCCN1C[C@@H](NC(=O)Nc2c(C)c(OCC(C)(C)O)nn2-c2ccccc2)[C@H](c2ccc(F)cc2)C1` [Example 362, 1-((3S,4R)-4-(4-fluorophenyl)-1-(2-methoxyethyl)pyrrolidin-3-yl)-3-(3-(2-hydroxy-2-methylpropoxy)-4-methyl-1-phenyl-1H-pyrazol-5-yl)urea], the IC50 is < 100 nM. Take `COCCN1C[C@@H](NC(=O)Nc2c(C)c(OC[C@@H](C)O)nn2-c2ccccc2)[C@H](c2ccc(F)cc2)C1` [Example 364, 1-((3S,4R)-4-(4-fluorophenyl)-1-(2-methoxyethyl)pyrrolidin-3-yl)-3-(3-((R)-2-hydroxypropoxy)-4-methyl-1-phenyl-1H-pyrazol-5-yl)urea]: the IC50 was < 100 nM. In the case of `COCCN1C[C@@H](NC(=O)Nc2c(C)c(OC[C@@H](C)O)nn2-c2ccccc2)[C@H](c2ccc(F)c(F)c2)C1` [Example 365, 1-((3S,4R)-4-(3,4-difluorophenyl)-1-(2-methoxyethyl)pyrrolidin-3-yl)-3-(3-((R)-2-hydroxypropoxy)-4-methyl-1-phenyl-1H-pyrazol-5-yl)urea], the IC50 is < 100 nM. As to `COCCN1C[C@@H](NC(=O)Nc2c(C)c(OC[C@@H](C)O)nn2-c2ccccc2)[C@H](c2cc(F)cc(F)c2)C1` [Example 366, 1-((3S,4R)-4-(3,5-difluorophenyl)-1-(2-methoxyethyl)pyrrolidin-3-yl)-3-(3-((R)-2-hydroxypropoxy)-4-methyl-1-phenyl-1H-pyrazol-5-yl)urea], the IC50 is < 100 nM. The figure for `COCCN1C[C@@H](NC(=O)Nc2c(C)c(OC[C@@H](O)C(F)(F)F)nn2-c2ccccc2)[C@H](c2cc(F)cc(F)c2)C1` [Example 367, 1-((3S,4R)-4-(3,5-difluorophenyl)-1-(2-methoxyethyl)pyrrolidin-3-yl)-3-(4-methyl-1-phenyl-3-((R)-3,3,3-trifluoro-2-hydroxypropoxy)-1H-pyrazol-5-yl)urea] is < 100 nM. Next, `COCCN1C[C@@H](NC(=O)Nc2c(C)c(OC[C@H](C)O)nn2-c2ccccc2)[C@H](c2ccc(F)cc2)C1` [Example 368, 1-((3S,4R)-4-(4-fluorophenyl)-1-(2-methoxyethyl)pyrrolidin-3-yl)-3-(3-((S)-2-hydroxypropoxy)-4-methyl-1-phenyl-1H-pyrazol-5-yl)urea]: < 100 nM; `COCCN1C[C@@H](NC(=O)Nc2c(C)c(OC[C@H](O)C(F)(F)F)nn2-c2ccccc2)[C@H](c2cc(F)cc(F)c2)C1` [Example 369, 1-((3S,4R)-4-(3,5-difluorophenyl)-1-(2-methoxyethyl)pyrrolidin-3-yl)-3-(4-methyl-1-phenyl-3-((S)-3,3,3-trifluoro-2-hydroxypropoxy)-1H-pyrazol-5-yl)urea]: < 100 nM. Regarding `COCCN1C[C@@H](NC(=O)Nc2c(Cl)c(OCC(C)(C)O)nn2-c2ccccc2)[C@H](c2cc(F)cc(F)c2)C1` [Example 370, 1-(4-chloro-3-(2-hydroxy-2-methylpropoxy)-1-phenyl-1H-pyrazol-5-yl)-3-((3S,4R)-4-(3,5-difluorophenyl)-1-(2-methoxyethyl)pyrrolidin-3-yl)urea], the IC50 is < 100 nM. Next, `COCCN1C[C@@H](NC(=O)Nc2c(Cl)c(OCC(C)(C)O)nn2-c2ccccc2)[C@H](c2ccc(F)cc2)C1` [Example 371, 1-(4-chloro-3-(2-hydroxy-2-methylpropoxy)-1-phenyl-1H-pyrazol-5-yl)-3-((3S,4R)-4-(4-fluorophenyl)-1-(2-methoxyethyl)pyrrolidin-3-yl)urea]: < 100 nM. Next, `COCCN1C[C@@H](NC(=O)Nc2c(Cl)c(OC[C@@H](C)O)nn2-c2ccccc2)[C@H](c2ccc(F)c(F)c2)C1` [Example 372, 1-(4-chloro-3-((R)-2-hydroxypropoxy)-1-phenyl-1H-pyrazol-5-yl)-3-((3S,4R)-4-(3,4-difluorophenyl)-1-(2-methoxyethyl)pyrrolidin-3-yl)urea]: < 100 nM; `COCCN1C[C@@H](NC(=O)Nc2c(Cl)c(OC[C@@H](C)O)nn2-c2ccccc2)[C@H](c2cc(F)cc(F)c2)C1` [Example 373, 1-(4-chloro-3-((R)-2-hydroxypropoxy)-1-phenyl-1H-pyrazol-5-yl)-3-((3S,4R)-4-(3,5-difluorophenyl)-1-(2-methoxyethyl)pyrrolidin-3-yl)urea]: < 100 nM.
